This series concerns Arabidopsis plants. Nature of the series: Arabidopsis netwell growth assay (rosette area over time, plants grown in soil in the multiwell plate system). In kind it is in vivo. The procedure: In the Arabidopsis […] growth assay, plants were grown in soil inside a 24 well […] insert plate comprising a polystyrene porous membrane with a pore size of about 420 μm, which is positioned into a 24 well irrigation plate (FIG. 1, 2). Before sowing, seeds were vernalized in water at 4 degrees Celsius for two days. Afterwards, the […] insert plate was filled with fine potting soil, or optionally with soil mixed with sand (ratio 3:1). During this process the soil (or soil with sand) was compressed two times (or optionally three times for soil/sand) by applying a light pressure onto the individual […]. A “humidity control” soil sample was taken for determination of the initial soil water humidity (see later). Next, one mL of water was added to each of the wells of the irrigation plates. The […] insert plates were positioned inside the irrigation plates and the mounted plates were sealed with (plastic) tape surrounding the edges, to prevent excessive water evaporation from the boundary wells as compared to the center wells of the 24 well plate. This was a crucial step to avoid growth differences between plants in boundary and center wells, and to obtain reproducible results. Next, the weight of the combined insert and irrigation plates was recorded. When seeds were used as samples, during the sowing of the Arabidopsis seeds, one seed was distributed in each of the wells. For germination, the […] insert plates were covered with a standard multiwell cover plate which was sealed with parafilm and was placed inside a plant growth chamber. After three days, the covers were removed and the plants continued to grow at normal atmospheric conditions. At 7 days after sowing, or when the appropriate plant stage was reached (e.g. 7 and 10 or 5 and 7 days), the plants received a (chemical) treatment. Therefore, 0.5 (optionally 0.8 mL for soil with sand) of a (chemical-containing) solution was added to each of the wells via the corresponding access holes. Each plant sample receives the supplied (same) amount of (chemical) solution. In the days following the treatment, the plants were again irrigated with water to maintain a soil water humidity of 3.5 (or optionally 0.95 for soil with sand) (see below). In the 24 well format the growth of Arabidopsis plants was typically followed for about 15 days, during which image analysis procedures were used to follow the growth of the individual plant samples over time and to quantify the growth response of these plants in response to the specific (chemical) treatments. The initial soil water humidity was determined by first drying the “humidity control” soil sample in an oven at 60 degrees Celsius, to obtain the “dry weight”. Next, taking into account the weight of the empty irrigation plates, the empty […] insert plates, and the current weight of the combined insert and irrigation plates, water was added to each of the wells to reach a “soil water humidity” of “3.5 gram water per gram of dry soil” or “3.5” (optionally, when soil with sand was used: “0.95 gram water per gram of dry soil (with sand)” was used as initial soil water humidity value). Water was added into the irrigation plate wells through the access holes present in the corresponding […] insert plate wells using a repetition pipet. Due to equal evaporation of water from individual wells within one insert plate, each well of the irrigation plate received the same amount of water, rounded to 100 μL. The water, added to the wells in the irrigation plates, is taken up by the soil present in the hollow chambers of the […] insert plate wells, through the mesh by capillary forces (FIG. 3B). This irrigation was repeated on a daily basis to prevent excessive drying of the soil in the wells. This watering regime is suitable for frequently used Arabidopsis growth conditions, but can be altered and further optimized when a plant drought-stress response is the desired testing regime. Plants were grown as described in the above […] assay method. […]

Take `CC(C)(C)[C@@H](O)[C@@H](Cc1ccc(Cl)cc1)n1cncn1` (racemic) [Paclobutrazol]: the “effect on plant growth (rosette area), dose response” value (Example 6, 0.8 mL at 7 and 10 DAS, Paclobutrazol 10, 20, 100 μM vs 0.1% DMSO, FIG. 8B) is listed as “plant growth retarding effect”. Turning to `c1ccc(CNc2ncnc3nc[nH]c23)cc1` [BAP, 6-Benzylaminopurine], the “effect on plant growth (average projected rosette area over time)” value (Example 2, 0.5 mL treatment solution at 8 DAS, 10 μM Kresoxim-methyl or 10 μM 6-Benzylaminopurine, imaging 4-16 DAS, vs water control, FIG. 4) is listed as “shoot growth inhibition”.

For `O=C(O)Cc1cccc2ccccc12` [NAA, 1-Naphthaleneacetic acid], the “rosette size versus NAA concentration” value (Example 5, 0.8 mL at 7 and 10 DAS, 1, 10, 20, 100 μM NAA vs DMSO vehicle, imaging 4-14 DAS, FIG. 7B) is reported as “The higher the concentration of NAA during the treatment, the smaller the rosette size”. The maximal inhibitory concentration (Example 5, rosette growth, concentration at which maximal inhibition was probably already reached) is no more than 50 µM. Regarding `O=C(O)/C=C\c1ccccc1` [cis-CA, cis-cinnamic acid], the “effect on plant growth (rosette area) at higher concentration, dose response” value (Example 6, 0.8 mL at 7 and 10 DAS, cis-CA 20, 50, 100 μM vs 0.1% DMSO, FIG. 8A) is on record as “plant growth retarding effect”. For the setting “Example 6, 0.8 mL at 7 and 10 DAS, cis-CA at 1 (unit not given) vs 0.1% DMSO, FIG. 8A”, the “effect on plant growth (rosette area) at low concentration” value was “slightly positive effect”. Moreover, the “toxicity for the plant at higher concentration” value (Example 6, cis-CA at higher concentration (20, 50, 100 μM), FIG. 8A) is reported as “rather toxic for the plant”.
